pIC50: −log10 of the molar value.
These compounds were tested against T1, TrkB (Homo sapiens, UniProt Q16620) (assay: Trk B Fluorescence Polarization Kinase Assay). Conditions: 150 uM ATP, 50 nM TrkB; uncertainty ±10%.
T1 construct: purchased Upstate 14-507M
Assay type: biochemical
Procedure: The compounds of the present invention are also specific inhibitors of TrkB. Selection of preferred compounds of Formula I for use as TrkB inhibitors was performed in the following manner. The TrkB assay utilized the fluorescein-labeled phosphopeptide and the anti-phosphotyrosine antibody included in the Panvera Phospho-Tyrosine Kinase Kit (Green) supplied by Invitrogen. When TrkB phosphorylated poly Glu4Tyr, the fluorescein-labeled phosphopeptide was displaced from the anti-phosphotyrosine antibody by the phosphorylated poly Glu4Tyr, thus decreasing the FP value. The TrkB kinase reaction was incubated at room temperature for 30 minutes under the following conditions: 50 nM TrkB (Upstate, catalog #14-507M), 20 ug/mL poly Glu4Tyr, 150 uM ATP, 5 mM MgCl2, 1% compound in DMSO. The kinase reaction was stopped with the addition of EDTA. The fluorescein-labeled phosphopeptide and the anti-phosphotyrosine antibody were added and incubated for 30 minutes at room temperature. Data points were an average of triplicate samples. Inhibition and IC50 data analysis were done with GraphPad Prism using a non-linear regression fit with a multiparamater, sigmoidal dose-response (variable slope) equation.

T1 sequence (Q16620 526-822 limits assumed): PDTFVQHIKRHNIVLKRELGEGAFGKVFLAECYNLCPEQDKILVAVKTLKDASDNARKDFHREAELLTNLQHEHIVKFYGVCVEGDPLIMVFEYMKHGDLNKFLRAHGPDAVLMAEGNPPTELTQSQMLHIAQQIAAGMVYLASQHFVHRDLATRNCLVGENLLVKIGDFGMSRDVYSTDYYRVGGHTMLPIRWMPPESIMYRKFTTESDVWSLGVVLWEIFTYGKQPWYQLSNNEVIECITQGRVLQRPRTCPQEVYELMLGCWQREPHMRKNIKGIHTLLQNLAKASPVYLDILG

Row | pIC50 | SMILES
1 | 5.39 | COc1cc2ncnc(N3CCC(NC(=O)Nc4ccc(OC5CCCC5)cc4)C3)c2cc1OC (stereo not shown) [Compound 53, 1-(4-Cyclopentyloxy-phenyl)-3-[1-(6,7-dimethoxy-quinazolin-4-yl)-pyrrolidin-3-yl]-urea]
2 | 4.35 | COc1cc2ncnc(N3CCC(OC(=O)Nc4ccc(OC5CCCC5)cc4)C3)c2cc1OC (stereo not shown) [Compound 54, (4-Cyclopentyloxy-phenyl)-carbamic acid 1-(6,7-dimethoxy-quinazolin-4-yl)-pyrrolidin-3-yl ester]
3 | < 4.34 | COc1cc2ncnc(N3CCC(OC(=O)Nc4ccc(OC5CCCC5)cc4)CC3)c2cc1OC [Compound 55, (4-Cyclopentyloxy-phenyl)-carbamic acid 1-(6,7-dimethoxy-quinazolin-4-yl)-piperidin-4-yl ester]
4 | 5.18 | COc1cc2ncnc(N3CCC(COC(=O)Nc4ccc(OC5CCCC5)cc4)CC3)c2cc1OC [Compound 56, (4-Cyclopentyloxy-phenyl)-carbamic acid 1-(6,7-dimethoxy-quinazolin-4-yl)-piperidin-4-ylmethyl ester]

Source: patent publication US20070004763A1, “AMINOQUINOLINE AND AMINOQUINAZOLINE KINASE MODULATORS” (priority 2005, published 2007)
